{"source": "the supplement of paper PMC6723410", "data": [{"system": "GUMC-403", "assay": "viability at highest tested concentration (max response) relative to DMSO (% of DMSO control); higher = less cytotoxic", "conditions": "library / dose series: MIPE library, 11-point 1:3 dilution; top concentration 23 µM; 48 h", "in_short": "(§1)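 Each figure stands for viability at the highest tested concentration compared with vehicle control. It was measured by CellTiter-Glo luminescence on a ViewLux after 48 h of exposure to 23 nL of pinned compound, with vehicle wells taken as 100% and empty wells as 0%. The cells were patient-derived GUMC-403 papilloma cells grown by conditional reprogramming, plated at 700/well in 5 μL F + Y medium in 1536-well plates.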", "values": [{"smiles": "Cn1cc(C[C@@H](N)C(=O)O)c2ccccc21", "viability": 111}]}, {"system": "GUMC-403", "assay": "viability at highest tested concentration (max response) relative to DMSO (% of DMSO control); higher = less cytotoxic", "conditions": "library / dose series: MIPE library, 11-point 1:3 dilution; top concentration 46.1 µM; 48 h", "in_short": "as §1", "values": [{"smiles": "O=NN(CCCl)C(=O)NC1CCCCC1", "viability": 124}, {"smiles": "O=C(OCC#CCSc1nnc(-c2cccc3ccccc23)o1)c1cc2ccccc2s1", "viability": 102}, {"smiles": "CN(C)CCOc1ccc(-c2nc(-c3ccncc3)c(-c3ccc4c(c3)CC/C4=N\\O)[nH]2)cc1", "viability": 94.9}, {"smiles": "CN[C@@H](C)[C@H]1[C@H](O)C[C@@]2(C)[C@@H]3CC[C@H]4C(C)(C)[C@@H](NC)CC[C@@]45C[C@@]35CC[C@]12C", "viability": 96}, {"smiles": "c1ccc2c(CCNc3ccc(Nc4ccncc4)cc3)c[nH]c2c1", "viability": 108}, {"smiles": "C/C=C(/C(=C/C)c1ccc(O)cc1)c1ccc(O)cc1", "viability": 89.2}, {"smiles": "C[S+](=O)([O-])c1cccc(CNc2nc(Nc3ccc4c(c3)CCC(=O)N4)ncc2C(F)(F)F)c1", "viability": 66.8}, {"smiles": "O=C1CSC(=O)N1C(CCc1ccncc1)COc1ccc(-c2cccc([N+](=O)[O-])c2)cc1", "note": "(stereo unspecified)", "viability": 79.8}, {"smiles": "COc1cc(/C=C/C(=O)O)ccc1O", "viability": 115}, {"smiles": "O=C(N[C@@H](c1ccccc1)[C@@H]1CCCCN1)c1cccc(C(F)(F)F)c1Cl", "viability": 99}, {"smiles": "CC(C)(C)OC(=O)N[C@H]1CCCCC/C=C\\[C@@H]2C[C@@]2(C(=O)N[S+](=O)([O-])C2CC2)NC(=O)[C@@H]2C[C@@H](OC(=O)N3Cc4cccc(F)c4C3)CN2C1=O", "viability": 138}, {"smiles": "CNC(=O)c1c(F)cccc1Nc1nc(Nc2cc3c(cc2OC)CCN3C(=O)CN(C)C)nc2[nH]ccc12", "viability": 84.8}, {"smiles": "CN(C)C/C=C/C(=O)Nc1cc2c(Nc3ccc(F)c(Cl)c3)ncnc2cc1O[C@H]1CCOC1", "viability": 41.7}, {"smiles": "O=C1\\C=C(OC2=C(C=CC=C12)C3=CC=CC4=C3SC5=C4C=CC=C5)\\N6CCOCC6", "viability": 70.9}, {"smiles": "CC(C)(S)[C@@H](N)C(=O)O", "viability": 128}, {"smiles": "OC1CCC(Nc2ncc3nc(Nc4c(F)cc(F)cc4F)n([C@@H]4CCOC4)c3n2)CC1", "note": "(stereo partly specified)", "viability": 95.5}, {"smiles": "Fc1ccc(C(c2ccc(F)cc2)N2CCN(C/C=C/c3ccccc3)CC2)cc1", "viability": 109}, {"smiles": "CN1C(=O)CCS(=O)(=O)C1c1ccc(Cl)cc1", "note": "(stereo unspecified)", "viability": 104}, {"smiles": "CN(c1nccc(=O)[nH]1)C1CCN(c2nc3ccccc3n2Cc2ccc(F)cc2)CC1", "viability": 97.4}, {"smiles": "COC(=O)[C@H](c1ccccc1Cl)N1CCc2sccc2C1", "viability": 124}, {"smiles": "COc1cc2ncn(-c3cc(OCc4ccccc4[S+](C)(=O)[O-])c(C#N)s3)c2cc1OC", "viability": 81.5}, {"smiles": "C[C@@H]1C(=O)OC2[C@H](O)[C@]34[C@H]5C[C@@H](C(C)(C)C)[C@]36[C@@H](OC(=O)[C@@H]6O)O[C@@]4(C(=O)O5)[C@]21O", "note": "(stereo partly specified)", "viability": 108}, {"smiles": "COc1cc2c(Oc3ccc4[nH]c(C)cc4c3F)ncnc2cc1OCCCN1CCCC1", "viability": 64.4}, {"smiles": "Cn1cnc2c(F)c(Nc3ccc(Br)cc3F)c(C(=O)NOCCO)cc21", "viability": 89.6}, {"smiles": "CCN1\\C=C(\\C(O)=O)C(=O)C2=C1N=C(N3CCNCC3)C(=C2)F", "viability": 95.7}, {"smiles": "CC[C@]12\\C=C/CN3CC[C@]4([C@@H](N(C)C5=CC(=C(C=C45)[C@]6(C[C@H]7C[C@H](CN(C7)CC8=C6[NH]C9=C8C=CC=C9)C(C)(F)F)C(=O)OC)OC)[C@](O)([C@@H]1OC(C)=O)C(=O)OC)[C@H]23", "viability": 85}, {"smiles": "CC(=O)Nc1sc2c(c1-c1nc3ccccc3s1)CNC2", "viability": 86.3}, {"smiles": "c1ccc(-c2nn3c(c2-c2ccnc4cc(OCCN5CCOCC5)ccc24)CCC3)nc1", "viability": 148}, {"smiles": "Nc1cccc2c1C(=O)N(C1CCC(=O)NC1=O)C2=O", "note": "(stereo unspecified)", "viability": 107}, {"smiles": "CC(C)c1c(C(=O)Nc2ccccc2)c(-c2ccccc2)c(-c2ccc(F)cc2)n1CC[C@@H](O)C[C@@H](O)CC(=O)[O-]", "viability": 70.3}, {"smiles": "CC(C)(Sc1ccc(CCN(CCCCC2CCCCC2)C(=O)NC2CCCCC2)cc1)C(=O)O", "viability": 109}, {"smiles": "Cc1cc(SCc2sc(-c3ccc(C(F)(F)F)c(F)c3)nc2C)ccc1OCC(=O)O", "viability": 127}, {"smiles": "COc1ccccc1OCC(O)CN1CCN(CC(=O)Nc2c(C)cccc2C)CC1", "note": "(stereo unspecified)", "viability": 130}, {"smiles": "CN(C)[S+](=O)([O-])c1ccc2c(c1)C(=Cc1cc3c([nH]1)CCCC3)C(=O)N2", "viability": 122}, {"smiles": "CCOC(=O)c1c(/C(C#N)=C\\N)c2ccc(Cl)c(Cl)c2n1C", "viability": 92.2}, {"smiles": "CCC(CC)[C@H](NC(C)=O)[C@@H]1[C@H](O)[C@@H](C(=O)O)C[C@H]1NC(=N)N", "viability": 106}, {"smiles": "OC[C@H]1O[C@@H](Oc2cc(O)cc(/C=C/c3ccc(O)cc3)c2)[C@H](O)[C@@H](O)[C@@H]1O", "viability": 128}, {"smiles": "NCCCC(N)(C(=O)O)C(F)F", "note": "(stereo unspecified)", "viability": 114}, {"smiles": "CN1C(=O)\\C(=C/C(=C1/NC2=C(F)C=C(I)C=C2)C(=O)NOCCO)C", "viability": 80.2}, {"smiles": "C[C@H]1[C@H](O)O[C@@H]2O[C@@]3(C)CC[C@H]4[C@H](C)CC[C@@H]1[C@@]24OO3", "viability": 90.6}, {"smiles": "NC(=O)c1ccc(I)c([N+](=O)[O-])c1", "viability": 122}, {"smiles": "O=C(Nc1cccc2c(=O)cc(-c3nnn[nH]3)oc12)c1ccc(OCCCCc2ccccc2)cc1", "viability": 87}, {"smiles": "C[C@@H]1[C@H](O)[C@@H](C)/C=C/C=C/C=C/C=C/C=C/C=C/C=C/[C@H](O[C@@H]2O[C@H](C)[C@@H](O)[C@H](N)[C@@H]2O)C[C@@H]2O[C@](O)(C[C@@H](O)C[C@@H](O)[C@H](O)CC[C@@H](O)C[C@@H](O)CC(=O)O[C@H]1C)C[C@H](O)[C@H]2C(=O)O", "viability": 123}, {"smiles": "NC(=O)OCC(COC(N)=O)c1ccccc1", "viability": 110}, {"smiles": "C[C@]12CCC(=O)C(O)=C1CC[C@@H]1[C@@H]2CC[C@]2(C)C(=O)CC[C@@H]12", "viability": 113}, {"smiles": "CC/1=C(/N2[C@H](SC1)[C@H](NC(=O)C(N)C3=CC=CC=C3)C2=O)C(O)=O", "note": "(stereo partly specified)", "viability": 106}, {"smiles": "COc1cc2c(cc1O)CCC1C2CC[C@@]2(C)C1CC[C@@H]2O", "note": "(stereo partly specified)", "viability": 101}, {"smiles": "COc1nccc(-c2c(-c3ccc(F)cc3)ncn2C2CCNCC2)n1", "viability": 131}, {"smiles": "CN1CC(=O)N2[C@H](c3ccc4c(c3)OCO4)c3[nH]c4ccccc4c3C[C@@H]2C1=O", "viability": 91.5}, {"smiles": "O=C1Nc2ccc(Cl)cc2C(C#CC2CC2)(C(F)(F)F)O1", "note": "(stereo unspecified)", "viability": 95.5}, {"smiles": "O=C(Nc1cc(Cl)cc2c1[nH]c1cnccc12)c1cccnc1", "viability": 56.8}, {"smiles": "C#C[C@]1(O)CC[C@H]2[C@@H]3CCc4cc(O)ccc4[C@H]3CC[C@@]21C", "viability": 74.3}, {"smiles": "ClC/1=C(NCCN2CCOCC2)/C(=O)C3=C(C=CC=N3)C1=O", "viability": 2.43}, {"smiles": "CO[C@H]1CCC(O[C@H]2C[C@H]([C@]3(C)CC[C@]4(C[C@H](O)[C@@H](C)[C@@H]([C@@H](C)/C=C(\\C)C(=O)[C@H](C)C[C@H](C)C(=O)[O-])O4)O3)O[C@]3(O[C@@H]([C@H]4O[C@@](O)(CO)[C@H](C)C[C@@H]4C)C[C@@H]3C)[C@@H]2C)O[C@@H]1C", "note": "(stereo partly specified)", "viability": 104}, {"smiles": "C[C@@H](N)C1CC[C@@H](CC1)C(=O)NC2=CC=NC=C2", "note": "(stereo partly specified)", "viability": 152}, {"smiles": "NC(=O)N1CCC(CC(=O)N2CCC([C@H]3c4ncc(Br)cc4CCc4cc(Cl)cc(Br)c43)CC2)CC1", "viability": 101}, {"smiles": "C[C@H]1COC/2=C1/C(=O)C(=O)C3=C4CCCC(C)(C)C4=CC=C23", "viability": 137}, {"smiles": "O=C(O)Cn1nnc(-c2cc(N3CCC(Oc4cc(F)ccc4Br)CC3)no2)n1", "viability": 128}, {"smiles": "CCC1(c2ccc(N)cc2)CCC(=O)NC1=O", "note": "(stereo unspecified)", "viability": 93.1}, {"smiles": "CCN1CCCC1CNC(=O)c1cc([S+](N)(=O)[O-])ccc1OC", "note": "(stereo unspecified)", "viability": 134}, {"smiles": "O=[S+]([O-])(/N=C/c1c(O)ccc2ccccc12)c1cccs1", "viability": 87.9}, {"smiles": "Cc1ccccc1C(C(=O)NC1CCCCC1)N(C(=O)CNc1ccc(C#N)cc1)c1cccc(F)c1", "note": "(stereo unspecified)", "viability": 108}, {"smiles": "C[C@H]1O[C@H]([C@H](O)[C@@H]1O)N2\\C=C(F)/C(=O)NC2=O", "viability": 124}, {"smiles": "CC(=O)[C@H]1CC[C@H]2[C@@H]3CCC4=CC(=O)CC[C@]4(C)[C@H]3CC[C@]12C", "viability": 118}, {"smiles": "OC1=CC=C(C=C1)\\C2=C\\OC3=C(C(=CC(=C3)O)O)C2=O", "viability": 77.6}, {"smiles": "CN1CCC(CC1)COC2=CN=C(N=C2)C3=CC(=CC=C3)CN4/N=C(\\C=C/C4=O)C5=CC(=CC=C5)C#N", "viability": 96.2}, {"smiles": "O=C(Nc1cccc(Cl)c1)Nc1ncc(CCNc2ncnc3ccsc23)s1", "viability": 116}, {"smiles": "O=C(O)c1cccnc1Nc1cccc(C(F)(F)F)c1", "viability": 129}, {"smiles": "CC1(C)CC\\C2=C(/O1)C3=C(C=CC=C3)C(=O)C2=O", "viability": 123}, {"smiles": "O=C(O)c1ccc(-c2c[nH]c3ncc(-c4ccccc4)cc23)cc1C1CCCC1", "viability": 145}, {"smiles": "COC1=CC=C(C=C1)C/2=C(OC3O[C@@H](C)[C@H](O)[C@@H](O)[C@H]3O)/C(=O)C4=C(O2)C(=C(OC5O[C@H](CO)[C@@H](O)[C@H](O)[C@H]5O)C=C4O)CC=C(C)C", "note": "(stereo partly specified)", "viability": 117}, {"smiles": "CC(C)(N)c1ccc(-c2nc3ccccc3nc2-c2ccccc2)cc1", "viability": 116}, {"smiles": "Cc1nc(NC(=O)N2CCC[C@H]2C(N)=O)sc1-c1ccnc(C(C)(C)C(F)(F)F)c1", "viability": 42.4}, {"smiles": "N#CC[C@H](C1CCCC1)n1cc(-c2ncnc3[nH]ccc23)cn1", "viability": 117}, {"smiles": "Cc1ccc(O)c(C(CCN(C(C)C)C(C)C)c2ccccc2)c1.Cl", "note": "(stereo unspecified)", "viability": 125}, {"smiles": "C[C@@H](NCCCc1cccc(C(F)(F)F)c1)c1cccc2ccccc12", "viability": 99.7}, {"smiles": "COc1cc2nc(-c3cc(F)ccc3O)nc(N[C@@H]3CNC[C@H]3C(C)(C)O)c2cc1OC", "viability": 59.9}]}, {"system": "GUMC-403", "assay": "viability at highest tested concentration (max response) relative to DMSO (% of DMSO control); higher = less cytotoxic", "conditions": "library / dose series: MIPE library, 11-point 1:3 dilution; top concentration 92.2 µM; 48 h", "in_short": "as §1", "values": [{"smiles": "Nc1cccc2c1CN([C@H]1CCC(=O)NC1=O)C2=O", "viability": 106}, {"smiles": "C[C@]12CCC(=O)C=C1CC[C@@H]1[C@@H]2CC[C@@]2(C)[C@H]1CC[C@]2(C)O", "viability": 128}, {"smiles": "C[S+]([O-])c1ccc(-c2nc(-c3ccc(F)cc3)c(-c3ccncc3)[nH]2)cc1", "note": "(stereo unspecified)", "viability": 71.3}]}]}
